In patent US11279730B2, “Oxysterols and methods of use thereof” (Sage Therapeutics, Inc., priority 2016, dated 2022):

Key:
[1] = biological target: T1, GluN2B glutamate receptors (Homo sapiens, UniProt Q05586+Q13224); assay: Whole-cell patch clamp of mammalian cells (Ionworks Barracuda, IWB), NMDA potentiation (PAM), GluN2B; format: cell-based; details: peak current amplitude; for GluN2B PCA IWB Ephys % potentiation at 3 μM: 3 μM test compound, co-application with EC20 L-glutamate and 30 μM glycine; for EC50: 8-point concentration-response, read-out: GluN2B PCA EC50; for Emax: maximal potentiation, read-out: GluN2B PCA Emax (%)
T1 construct: expressed in transfected cells
T1 sequence (Q13224 27-1484, other chains not shown): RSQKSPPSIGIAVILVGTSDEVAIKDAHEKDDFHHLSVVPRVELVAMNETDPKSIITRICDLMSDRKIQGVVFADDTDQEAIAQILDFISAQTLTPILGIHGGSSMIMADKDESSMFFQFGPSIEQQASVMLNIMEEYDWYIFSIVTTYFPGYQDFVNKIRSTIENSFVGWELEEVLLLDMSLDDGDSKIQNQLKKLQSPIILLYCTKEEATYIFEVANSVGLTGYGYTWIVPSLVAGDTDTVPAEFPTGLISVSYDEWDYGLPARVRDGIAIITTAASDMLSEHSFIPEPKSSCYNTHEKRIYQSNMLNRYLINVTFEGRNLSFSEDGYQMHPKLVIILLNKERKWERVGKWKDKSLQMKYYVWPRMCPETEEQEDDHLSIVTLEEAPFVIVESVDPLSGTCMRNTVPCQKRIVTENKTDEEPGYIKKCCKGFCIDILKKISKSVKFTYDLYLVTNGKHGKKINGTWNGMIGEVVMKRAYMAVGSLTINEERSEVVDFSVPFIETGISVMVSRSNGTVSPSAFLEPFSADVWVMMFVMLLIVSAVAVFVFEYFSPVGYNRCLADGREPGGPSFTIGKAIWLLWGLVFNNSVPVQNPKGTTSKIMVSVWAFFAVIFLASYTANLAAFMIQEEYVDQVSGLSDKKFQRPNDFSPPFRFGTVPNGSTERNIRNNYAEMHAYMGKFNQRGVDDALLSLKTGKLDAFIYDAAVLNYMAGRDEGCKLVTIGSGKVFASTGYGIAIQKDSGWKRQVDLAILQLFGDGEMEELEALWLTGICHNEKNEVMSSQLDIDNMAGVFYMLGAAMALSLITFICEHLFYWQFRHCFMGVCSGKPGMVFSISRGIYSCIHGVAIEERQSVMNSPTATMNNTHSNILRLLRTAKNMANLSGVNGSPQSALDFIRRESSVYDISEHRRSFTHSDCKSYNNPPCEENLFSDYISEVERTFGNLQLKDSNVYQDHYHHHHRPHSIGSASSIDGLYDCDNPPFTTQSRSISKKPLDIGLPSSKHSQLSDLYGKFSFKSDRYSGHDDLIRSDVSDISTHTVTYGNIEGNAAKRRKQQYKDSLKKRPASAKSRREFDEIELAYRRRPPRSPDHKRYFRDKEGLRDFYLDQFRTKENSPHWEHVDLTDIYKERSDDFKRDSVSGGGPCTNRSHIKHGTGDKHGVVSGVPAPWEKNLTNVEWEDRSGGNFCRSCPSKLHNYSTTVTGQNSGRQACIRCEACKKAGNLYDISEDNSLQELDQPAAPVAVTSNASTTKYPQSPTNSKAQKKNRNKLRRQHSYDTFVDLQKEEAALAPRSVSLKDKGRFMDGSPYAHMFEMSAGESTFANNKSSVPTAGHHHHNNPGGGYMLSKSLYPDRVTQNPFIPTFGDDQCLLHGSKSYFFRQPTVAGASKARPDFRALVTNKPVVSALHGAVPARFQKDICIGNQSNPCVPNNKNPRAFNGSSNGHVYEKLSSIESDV
Procedure: (§1) NMDA potentiation in mammalian cells which expressed NMDA receptors was assessed using the whole cell patch clamp to determine the PAM activity of compounds as described below. An automatic patch-clamp system can be used determine the […] activity of compounds as described below.
(§2) The whole-cell patch-clamp technique was used to investigate the effects of positive allosteric modulating activity of test compounds on GlunN1/GluN2A and GluN2B glutamate receptors expressed in mammalian cells.
(§3) Test article effects were evaluated in 8-point concentration-response format (4 replicate wells/concentration). All test and control solutions contained 0.3% DMSO and 0.01% Kolliphor® EL (C5135, Sigma). The test article formulations were loaded in a 384-well compound plate using an automated liquid handling system (SciClone ALH3000, Caliper LifeSciences). The measurements were performed using Ion Works Barracuda platform following this procedure:
(§4) • a) Intracellular solution (mM): 50 mM CsCl, 90 mM CsF, 2 mM MgCl2, 5 mM EGTA, 10 mM HEPES. Adjust to pH 7.2 with CsOH. • b) Extracellular solution, HB-PS (composition in mM): NaCl, 137; KCl, 1.0; CaCl2, 5; HEPES, 10; Glucose, 10; pH adjusted to 7.4 with NaOH (refrigerated until use). • c) Holding potential: −70 mV, potential during agonist/PAM application: −40 mV. Recording Procedure: • a) Extracellular buffer will be loaded into the PPC plate wells (11 μL per well). Cell suspension will be pipetted into the wells (9 μL per well) of the PPC planar electrode. • b) Whole-cell recording configuration will be established via patch perforation with membrane currents recorded by on-board patch clamp amplifiers. • c) Two recordings (scans) will be performed. First, during pre-application of test article alone (duration of pre-application—5 min) and second, during test articles and agonist (EC20 L-glutamate and 30 μM glycine) co-application to detect positive modulatory effects of the test article.
(§5) Test Article Administration: The first pre-application will consist of the addition of 20 μL of 2× concentrated test article solution and, second, of 20 μL of 1× concentrated test article and agonist at 10 μL/s (2 second total application time).
(§6) Potentiating effect of positive allosteric modulators (PAM) on the channel will be calculated as % activation=(IPAM/IEC10-30)×100%−100% where IPAM will be the L-glutamate EC10-30-elicited current in presence of various concentrations of test articles and IEC20 will be the mean current elicited with L-glutamate EC20. PAM concentration-response data will be fitted to an equation of the form: % Activation=% L-glutamate EC20+{(% MAX−% L-glutamate EC20)/[1+([Test]/EC50)^N]} where [Test] will be the concentration of PAM (test article), EC50 will be the concentration of PAM producing half-maximal activation, N will be the Hill coefficient, % L-glutamate EC20 will be the percentage of the current Elicited with L-glutamate EC20, % MAX is the percentage of the current activated with the highest dose of PAM co-admitted with L-glutamate EC20 and % Activation will be the percentage of the current elicited with L-glutamate EC10-30 at each PAM concentration.
(§7) The maximal amplitude of the evoked currents are measured and defined as Peak Current Amplitude (PCA).

[2] = biological target: T2, GlunN1/GluN2A glutamate receptors (Homo sapiens, UniProt Q05586+Q12879); assay: Whole-cell patch clamp of mammalian cells (Ionworks Barracuda, IWB), NMDA potentiation (PAM), GluN2A; format: cell-based; details: peak current amplitude; for GluN2A PCA IWB Ephys % potentiation at 3 μM: 3 μM test compound, co-application with EC20 L-glutamate and 30 μM glycine; for EC50: 8-point concentration-response, read-out: GluN2A PCA EC50; for Emax: maximal potentiation, read-out: GluN2A PCA Emax (%)
T2 construct: expressed in transfected cells
T2 sequence (Q12879 23-1464, other chains not shown): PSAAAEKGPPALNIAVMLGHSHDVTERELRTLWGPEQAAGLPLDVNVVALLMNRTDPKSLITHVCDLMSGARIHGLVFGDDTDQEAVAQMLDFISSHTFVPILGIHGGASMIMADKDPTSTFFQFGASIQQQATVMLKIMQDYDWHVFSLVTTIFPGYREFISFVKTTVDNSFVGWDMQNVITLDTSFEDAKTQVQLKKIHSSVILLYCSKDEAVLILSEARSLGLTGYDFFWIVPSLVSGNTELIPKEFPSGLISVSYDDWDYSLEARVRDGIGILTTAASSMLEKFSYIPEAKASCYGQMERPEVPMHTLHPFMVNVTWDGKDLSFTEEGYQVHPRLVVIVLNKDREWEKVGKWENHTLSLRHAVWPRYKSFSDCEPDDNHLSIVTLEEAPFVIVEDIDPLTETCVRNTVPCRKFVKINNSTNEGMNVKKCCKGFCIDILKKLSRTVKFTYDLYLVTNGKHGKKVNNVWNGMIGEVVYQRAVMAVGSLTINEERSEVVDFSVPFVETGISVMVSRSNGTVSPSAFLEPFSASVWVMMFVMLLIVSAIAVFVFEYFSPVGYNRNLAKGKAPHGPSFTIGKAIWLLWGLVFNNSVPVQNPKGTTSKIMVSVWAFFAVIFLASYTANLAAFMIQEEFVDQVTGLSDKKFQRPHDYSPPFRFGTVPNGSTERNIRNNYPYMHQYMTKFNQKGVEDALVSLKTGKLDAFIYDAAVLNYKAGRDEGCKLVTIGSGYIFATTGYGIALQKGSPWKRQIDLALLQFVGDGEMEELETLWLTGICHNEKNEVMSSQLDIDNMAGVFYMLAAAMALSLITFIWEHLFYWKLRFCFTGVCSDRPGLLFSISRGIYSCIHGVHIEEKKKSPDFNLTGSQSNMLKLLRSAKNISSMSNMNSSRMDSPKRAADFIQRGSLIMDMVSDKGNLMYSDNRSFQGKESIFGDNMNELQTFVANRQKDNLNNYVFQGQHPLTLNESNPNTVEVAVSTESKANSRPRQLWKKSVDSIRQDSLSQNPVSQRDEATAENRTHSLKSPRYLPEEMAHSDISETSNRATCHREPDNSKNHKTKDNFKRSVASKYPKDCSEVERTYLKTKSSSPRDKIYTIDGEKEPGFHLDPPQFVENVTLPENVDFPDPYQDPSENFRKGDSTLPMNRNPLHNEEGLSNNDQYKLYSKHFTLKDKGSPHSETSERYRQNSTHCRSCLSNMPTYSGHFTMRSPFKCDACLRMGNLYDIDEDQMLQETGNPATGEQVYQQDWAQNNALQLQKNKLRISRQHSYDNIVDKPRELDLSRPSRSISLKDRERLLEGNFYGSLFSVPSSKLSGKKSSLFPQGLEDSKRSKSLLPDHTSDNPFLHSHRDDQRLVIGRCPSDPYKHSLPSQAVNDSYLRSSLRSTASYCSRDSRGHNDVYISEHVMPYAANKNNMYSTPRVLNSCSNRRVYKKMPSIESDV
Procedure: as §1, §2
HEK293 cells were transformed with adenovirus 5 DNA and transfected with cDNA encoding the human GRIN1/GRIN2A genes. Stable transfectants were selected using G418 and Zeocin-resistance genes incorporated into the expression plasmid and selection pressure maintained with G418 and Zeocin in the medium. Cells were cultured in Dulbecco's Modified Eagle Medium/Nutrient Mixture (D-MEM/F-12) supplemented with 10% fetal bovine serum, 100 μg/ml penicillin G sodium, 100 μg/ml streptomycin sulphate, 100 μg/ml Zeocin, 5 μg/ml blasticidin and 500 μg/ml G418.
as §3, §4, §5, §6, §7

| Structure (SMILES) | GluN2B PCA IWB Ephys % potentiation at 3 μM [1] | EC50 [1] [nM] | Emax [1] [%] | GluN2A PCA IWB Ephys % potentiation at 3 μM [2] | EC50 [2] [nM] | Emax [2] [%] |
| --- | --- | --- | --- | --- | --- | --- |
| C[C@H](CCC(C)(C)O)[C@H]1CC[C@H]2[C@@H]3CC[C@H]4C[C@@](C)(O)CC[C@]4(C)[C@H]3C(=O)C[C@]12C [Compound 1] | B (“B” indicates potentiation of >100%) | 500 to 1000 | 100 to 500 | B (“B” indicates potentiation of >100%) | 500 to 1000 | 100 to 500 |
| C[C@H](CCC(C)(C)O)[C@H]1CC[C@H]2[C@@H]3CC[C@H]4C[C@@H](O)CC[C@]4(C)[C@H]3C(=O)C[C@]12C [Compound 2] | A (“A” indicates % potentiation up to 100%) | 500 to 1000 | < 100 | A (“A” indicates % potentiation up to 100%) | 1000 to 10000 | < 100 |
| C[C@H](CCC(C)(C)O)[C@H]1CC[C@H]2[C@@H]3CC=C4C[C@@H](O)CC[C@]4(C)[C@H]3[C@@H](O)C[C@]12C [Compound 3] | B (“B” indicates potentiation of >100%) | 500 to 1000 | 100 to 500 | A (“A” indicates % potentiation up to 100%) | ≥ 10000 | < 100 |
| C[C@H](CCC(C)(C)O)[C@H]1CC[C@H]2[C@@H]3CC=C4C[C@@H](O)CC[C@]4(C)[C@H]3C(=O)C[C@]12C [Compound 4] | B (“B” indicates potentiation of >100%) | 100 to 500 | 100 to 500 | B (“B” indicates potentiation of >100%) | 100 to 500 | 100 to 500 |
| CC[C@]1(O)CC[C@@]2(C)C(=CC[C@H]3[C@@H]4CC[C@H]([C@H](C)CCC(C)(C)O)[C@@]4(C)CC(=O)[C@@H]32)C1 [Compound 5] |  | 100 to 500 | 100 to 500 |  | 100 to 500 | 100 to 500 |
| CC[C@]1(O)CC[C@@]2(C)C(=CC[C@H]3[C@@H]4CC[C@H]([C@H](C)CC[C@@H](O)C(C)C)[C@@]4(C)CC(=O)[C@@H]32)C1 [Compound 6] |  | 1 to 100 | 100 to 500 |  | 1 to 100 | 100 to 500 |
| CC[C@]1(O)CC[C@@]2(C)C(=CC[C@H]3[C@@H]4CC[C@H]([C@H](C)CC[C@H](O)C(C)C)[C@@]4(C)CC(=O)[C@@H]32)C1 [Compound 7] |  | 1 to 100 | 100 to 500 |  | 1 to 100 | 100 to 500 |
| CC[C@]1(O)CC[C@@]2(C)C(=CC[C@H]3[C@@H]4CC[C@H]([C@H](C)CC[C@H](O)C(C)(C)C)[C@@]4(C)CC(=O)[C@@H]32)C1 [Compound 9] |  | 1 to 100 | 100 to 500 |  | 1 to 100 | > 500 |
| CC[C@]1(O)CC[C@@]2(C)C(=CC[C@H]3[C@@H]4CC[C@H]([C@H](C)CC[C@@H](O)C(C)(C)C)[C@@]4(C)CC(=O)[C@@H]32)C1 [Compound 10] |  | 1 to 100 | 100 to 500 |  | 1 to 100 | > 500 |
| C[C@H](CCC(C)(C)O)[C@H]1CC[C@H]2[C@@H]3CC=C4C[C@@](C)(O)CC[C@]4(C)[C@H]3C(C)(O)C[C@]12C (some centres unmarked) [Compound 11] | B (“B” indicates potentiation of >100%) | 1000 to 10000 | 100 to 500 | B (“B” indicates potentiation of >100%) | 500 to 1000 | 100 to 500 |
